In patent US5512562A, “Tricyclic 2,3,4,5-tetrahydro-1H-3-benzapines” (Novo Nordisk A/S, priority 1993, dated 1996):

Molecular target: T1, dopamine D1 receptor (Rattus norvegicus, UniProt P18901)
T1 construct: from tissue; host or cells: rat striatum homogenate
Test: binding to dopamine D1 receptor in homogenates from rat striatum
Protocol: The compounds of the invention are useful because of their pharmacological activity. In particular, the compounds of the invention are active in assays predictive for antipsychotic effect. Thus the compounds of formula I were tested for their binding to dopamine D1 receptor in homogenates from rat striatum using the method described (Life Science vol. 37, p. 1971 (1985) P. Andersen et al.) and the result appears from Table I. IC50 is the affinity of tested compounds for the dopamine D1 receptor.

T1 sequence (P18901 whole entry): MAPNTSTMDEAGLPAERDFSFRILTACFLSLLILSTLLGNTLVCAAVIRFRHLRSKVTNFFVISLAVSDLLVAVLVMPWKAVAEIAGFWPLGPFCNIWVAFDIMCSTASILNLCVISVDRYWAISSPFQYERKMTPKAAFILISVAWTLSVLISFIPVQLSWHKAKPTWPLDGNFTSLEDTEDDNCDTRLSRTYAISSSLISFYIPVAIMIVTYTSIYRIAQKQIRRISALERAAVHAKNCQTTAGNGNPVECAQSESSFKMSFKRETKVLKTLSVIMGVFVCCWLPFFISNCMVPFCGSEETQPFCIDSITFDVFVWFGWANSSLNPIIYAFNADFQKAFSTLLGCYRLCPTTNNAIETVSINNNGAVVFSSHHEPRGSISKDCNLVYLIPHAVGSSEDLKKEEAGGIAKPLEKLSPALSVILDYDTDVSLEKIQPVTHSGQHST

- IC50: 12 nM
Structure (SMILES): CN1CCc2c(ccc3ccoc23)C(c2cccc3ccoc23)C1 (racemic) [Example 1, 6-(Benzofuran-7-yl)-8-methyl-7,8,9,10-tetrahydro-6H-furo 2,3-g! 3!benzazepine]
